Measured values taken from US8815882B2, “Pyrazole aminopyrimidine derivatives as LRRK2 modulators” (Genentech, Inc., priority 2010, dated 2014).
Where two headings read alike, the source gives them in different places.

Molecular target: T1, LRRK2 (Homo sapiens, UniProt Q5S007, G2019S)
T1 construct: purchased Invitrogen PV4882 (lot 567054A)
Experiment: In Vitro LRRK2 Assay (LabChip 3000, fluorescently-labeled peptide substrate, ATP)
Assay type: biochemical
Procedure, shortened: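 LRRK2, fluorescent peptide substrate (diluted to 4 μM before mixing), ATP and compound were incubated 2 h in the dark, then stopped. Phosphorylated and unphosphorylated peptide were separated by capillary electrophoresis and quantified by fluorescence. Ki was fitted with a tight-binding equation including enzyme concentration, S and Km; IC50 or percent inhibition were also reported.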

[1] = read-out: LRRK2 Ki (KI), Table 8
[2] = Table 9, LRRK2 Ki (micromolar), read-out: LRRK2 Ki (KI)

T1 sequence (Q5S007 whole entry G2019S): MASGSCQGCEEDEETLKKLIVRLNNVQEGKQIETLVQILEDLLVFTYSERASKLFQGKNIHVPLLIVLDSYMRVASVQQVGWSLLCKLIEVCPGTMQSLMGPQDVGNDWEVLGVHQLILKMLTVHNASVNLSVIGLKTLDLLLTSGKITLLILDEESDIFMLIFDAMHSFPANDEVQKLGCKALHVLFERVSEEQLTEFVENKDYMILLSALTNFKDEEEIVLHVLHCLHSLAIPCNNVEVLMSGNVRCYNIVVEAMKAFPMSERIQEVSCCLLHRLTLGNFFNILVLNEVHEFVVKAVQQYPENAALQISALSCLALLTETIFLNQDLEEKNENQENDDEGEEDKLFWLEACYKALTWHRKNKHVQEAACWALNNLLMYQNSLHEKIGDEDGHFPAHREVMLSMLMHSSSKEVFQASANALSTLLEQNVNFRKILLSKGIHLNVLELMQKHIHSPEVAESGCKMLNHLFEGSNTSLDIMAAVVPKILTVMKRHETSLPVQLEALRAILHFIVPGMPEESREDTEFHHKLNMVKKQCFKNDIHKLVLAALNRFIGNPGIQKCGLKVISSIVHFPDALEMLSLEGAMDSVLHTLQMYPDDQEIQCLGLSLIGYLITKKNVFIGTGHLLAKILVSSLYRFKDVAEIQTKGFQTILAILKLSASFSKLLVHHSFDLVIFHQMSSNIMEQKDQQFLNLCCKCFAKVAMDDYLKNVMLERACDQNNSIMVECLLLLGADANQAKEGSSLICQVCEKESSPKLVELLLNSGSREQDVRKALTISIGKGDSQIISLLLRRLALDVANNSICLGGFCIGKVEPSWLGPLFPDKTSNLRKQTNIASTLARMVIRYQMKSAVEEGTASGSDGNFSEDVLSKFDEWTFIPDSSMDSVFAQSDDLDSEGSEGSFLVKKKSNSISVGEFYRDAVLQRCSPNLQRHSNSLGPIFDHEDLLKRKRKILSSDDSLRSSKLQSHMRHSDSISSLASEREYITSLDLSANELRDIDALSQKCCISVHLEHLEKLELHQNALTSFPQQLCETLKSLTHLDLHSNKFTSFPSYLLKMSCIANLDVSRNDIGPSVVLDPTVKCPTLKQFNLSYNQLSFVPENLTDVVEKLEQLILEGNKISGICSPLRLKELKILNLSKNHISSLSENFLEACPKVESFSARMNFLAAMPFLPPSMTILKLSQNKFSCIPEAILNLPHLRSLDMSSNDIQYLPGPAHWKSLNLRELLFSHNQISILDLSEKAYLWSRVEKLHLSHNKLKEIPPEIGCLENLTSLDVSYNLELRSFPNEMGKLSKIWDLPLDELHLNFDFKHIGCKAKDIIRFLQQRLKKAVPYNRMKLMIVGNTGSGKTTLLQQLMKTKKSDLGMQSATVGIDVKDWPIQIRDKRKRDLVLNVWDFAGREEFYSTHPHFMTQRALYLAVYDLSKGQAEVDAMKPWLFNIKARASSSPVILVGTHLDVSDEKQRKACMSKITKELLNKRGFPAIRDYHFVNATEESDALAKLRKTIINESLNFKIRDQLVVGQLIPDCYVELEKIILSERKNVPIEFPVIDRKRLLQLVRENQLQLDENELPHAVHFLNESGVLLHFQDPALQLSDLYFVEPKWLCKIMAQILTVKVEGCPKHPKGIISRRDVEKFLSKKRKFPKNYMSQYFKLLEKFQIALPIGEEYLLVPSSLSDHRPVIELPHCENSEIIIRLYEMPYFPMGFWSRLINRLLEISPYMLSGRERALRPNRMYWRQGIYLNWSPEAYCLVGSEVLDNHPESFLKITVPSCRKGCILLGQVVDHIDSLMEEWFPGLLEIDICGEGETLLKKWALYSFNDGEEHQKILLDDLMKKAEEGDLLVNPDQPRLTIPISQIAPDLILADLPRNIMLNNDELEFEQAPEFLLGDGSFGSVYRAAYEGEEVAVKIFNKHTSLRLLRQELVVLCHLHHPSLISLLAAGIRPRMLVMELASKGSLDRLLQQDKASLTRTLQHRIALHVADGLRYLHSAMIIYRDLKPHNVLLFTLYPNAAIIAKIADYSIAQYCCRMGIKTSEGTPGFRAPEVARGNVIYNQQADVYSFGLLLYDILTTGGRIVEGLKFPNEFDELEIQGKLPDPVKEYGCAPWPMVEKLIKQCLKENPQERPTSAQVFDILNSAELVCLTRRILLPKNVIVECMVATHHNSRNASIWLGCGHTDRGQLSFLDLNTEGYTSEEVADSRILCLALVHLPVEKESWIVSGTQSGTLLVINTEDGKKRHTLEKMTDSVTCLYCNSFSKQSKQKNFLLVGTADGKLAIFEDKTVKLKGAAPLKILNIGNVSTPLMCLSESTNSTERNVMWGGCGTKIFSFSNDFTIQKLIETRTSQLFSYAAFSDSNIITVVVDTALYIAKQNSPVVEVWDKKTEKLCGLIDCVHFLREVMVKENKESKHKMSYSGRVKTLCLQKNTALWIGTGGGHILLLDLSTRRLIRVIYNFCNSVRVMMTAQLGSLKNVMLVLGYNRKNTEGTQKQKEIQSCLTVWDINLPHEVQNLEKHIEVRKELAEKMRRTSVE

Ki [2] [nM]	Structure (SMILES)	other results
82	CNc1nc(Nc2cn(-c3ccc(Cl)cc3)nc2C)ncc1C#N [Example 368, 2-(1-(4-chlorophenyl)-3-methyl-1H-pyrazol-4-ylamino)-4-(methylamino) pyrimidine-5-carbonitrile]	–
2.5	CNc1nc(Nc2cnn(-c3ccc(Cl)cc3)c2C)ncc1C#N [Example 369, 2-(1-(4-chlorophenyl)-5-methyl-H-pyrazol-4-ylamino)-4-(methylamino) pyrimidine-5-carbonitrile]	–
41.5	CNc1nc(Nc2cn(-c3ccccn3)nc2C)ncc1C#N [Example 370, 2-(3-methyl-1-(pyridin-2-yl)-1H-pyrazol-4-ylamino)-4-(methylamino) pyrimidine-5-carbonitrile]	–
5.2	CCNc1nc(Nc2cnn(C3CCOCC3)c2C)ncc1C#N [Example 371, 4-(ethylamino)-2-(5-methyl-1-(tetrahydro-2H-pyran-4-yl)-1H-pyrazol-4-ylamino) pyrimidine-5-carbonitrile]	–
24	CCNc1nc(Nc2cn(C3CCOCC3)nc2C)ncc1C#N [Example 372, 4-(ethylamino)-2-(3-methyl-1-(tetrahydro-2H-pyran-4-yl)-1H-pyrazol-4-ylamino) pyrimidine-5-carbonitrile]	–
22.8	CCNc1nc(Nc2cn(C3COC3)nc2C)ncc1C#N [Example 373, 4-(ethylamino)-2-(3-methyl-1-(oxetan-3-yl)-1H-pyrazol-4-ylamino) pyrimidine-5-carbonitrile]	–
15.8	CNc1nc(Nc2cnn(C(C)C)c2C)ncc1C#N [Example 374, 2-(1-isopropyl-5-methyl-1H-pyrazol-4-ylamino)-4-(methylamino) pyrimidine-5-carbonitrile]	–
145	COc1nc(Nc2cnn(C)c2C)ncc1C#N [Example 375, 2-(1,5-dimethyl-1H-pyrazol-4-ylamino)-4-methoxy-pyrimidine-5-carbonitrile]	–
27.5	Cc1c(Nc2ncc(C#N)c(NCC(F)(F)F)n2)cnn1C [Example 376, 2-(1,5-dimethyl-1H-pyrazol-4-ylamino)-4-(2,2,2-trifluoroethylamino) pyrimidine-5-carbonitrile]	–
75	CCn1ncc(Nc2ncc(C#N)c(OC)n2)c1C [Example 377, 2-(1-ethyl-5-methyl-1H-pyrazol-4-ylamino)-4-methoxypyrimidine-5-carbonitrile]	–
45	CNc1nc(Nc2cn(CC3CC3)nc2C)ncc1C#N [Example 380, 2-(1-(cyclopropylmethyl)-3-methyl-1H-ylamino)-4-(methylamino) pyrimidine-5-carbonitrile]	–
11	CNc1nc(Nc2cnn(C3CCC(F)(F)CC3)c2C)ncc1C#N [Example 381, 2-(1-(4,4-difluorocyclohexyl)-5-methyl-1H-pyrazol-4-ylamino)-4-(methylamino) pyrimidine-5-carbonitrile]	–
66	Cc1nn(C2COC2)cc1Nc1ncc(C#N)c(NCC(F)(F)F)n1 [Example 382, 2-(3-methyl-1-(oxetan-3-yl)-1H-pyrazol-4-ylamino)-4-(2,2,2-trifluoroethylamino) pyrimidine-5-carbonitrile]	–
9.6	CNc1nc(Nc2cnn(C3CCOCC3)c2Cl)ncc1C#N [Example 383, 2-(5-chloro-1-(tetrahydro-2H-pyran-4-yl)-1H-pyrazol-4-ylamino)-4-(methylamino) pyrimidine-5-carbonitrile]	–
19.1	CNc1nc(Nc2cnn(C(F)F)c2C)ncc1C#N [Example 384, 2-(1-Difluoromethyl-5-methyl-1H-pyrazol-4-ylamino)-4-methylamino-pyrimidine-5-carbonitrile]	–
12.7	CCNc1nc(Nc2cnn(C)c2C)ncc1C#N [Example 385, 2-(1,5-Dimethyl-1H-pyrazol-4-ylamino)-4-ethylamino-pyrimidine-5-carbonitrile]	–
95.9	CNc1nc(Nc2cnn(-c3ccc(F)cc3)c2C)ncc1C#N [Example 386, 2-[1-(4-Fluoro-phenyl)-5-methyl-1H-pyrazol-4-ylamino]-4-methylamino-pyrimidine-5-carbonitrile]	–
5.4	CCCn1cc(Nc2ncc(C#N)c(NC)n2)c(C)n1 [Example 387, 4-Methylamino-2-(3-methyl-1-propyl-1H-pyrazol-4-ylamino)-pyrimidine-5-carbonitrile]	–
32.2	CNc1nc(Nc2cnn(C3COC3)c2C)ncc1C#N [Example 388, 4-Methylamino-2-(5-methyl-1-oxetan-3-yl-1H-pyrazol-4-ylamino)-pyrimidine-5-carbonitrile]	–

The remaining lines, values behind:

Structure (SMILES)	Ki [2] [nM]	other results
CCNc1nc(Nc2cn(C(C)(C)c3ccn(C)n3)nc2C)ncc1C(F)(F)F [Example 342, N4-ethyl-N2-(3-methyl-1-(2-(1-methyl-1H-pyrazol-3-yl)propan-2-yl)-1H-pyrazol-4-yl)-5-(trifluoromethyl) pyrimidine-2,4-diamine]	–	Ki [1]: 21.7 nM
CCNc1nc(Nc2cn(C(C)(C)c3ccnn3C)nc2C)ncc1C(F)(F)F [Example 343, N4-ethyl-N2-(3-methyl-1-(2-(1-methyl-1H-pyrazol-5-yl)propan-2-yl)-1H-pyrazol-4-yl)-5-(trifluoromethyl) pyrimidine-2,4-diamine]	–	Ki [1]: 0.3 nM
CNc1nc(Nc2cn(C(C)(C)c3ccnn3C)nc2C)ncc1C(F)(F)F [Example 344, N4-methyl-N2-(3-methyl-1-(2-(1-methyl-1H-pyrazol-5-yl)propan-2-yl)-1H-pyrazol-4-yl)-5-(trifluoromethyl) pyrimidine-2,4-diamine]	–	Ki [1]: 1.4 nM
CNc1nc(Nc2cn(C(C)(C)c3ccn(C)n3)nc2C)ncc1C(F)(F)F [Example 345, N4-methyl-N2-(3-methyl-1-(2-(1-methyl-1H-pyrazol-3-yl)propan-2-yl)-1H-pyrazol-4-yl)-5-(trifluoromethyl) pyrimidine-2,4-diamine]	–	Ki [1]: 115 nM
CNc1nc(Nc2cnn(C)c2C)ncc1C#N [Example 349, 2-(1,5-Dimethyl-1H-pyrazol-4-ylamino)-4-(methylamino)pyrimidine-5-carbonitrile]	–	Ki (read-out: LRRK2 Ki given in the example): 25 nM
CNc1nc(Nc2cn(C)nc2C)ncc1C#N [Example 350, 2-(1,3-Dimethyl-1H-pyrazol-4-ylamino)-4-methylamino-pyrimidine-5-carbonitrile]	29	–
CCn1ncc(Nc2ncc(C#N)c(NC)n2)c1C [Example 351, 2-(1-ethyl-5-methyl-1H-pyrazol-4-ylamino)-4-(methylamino) pyrimidine-5-carbonitrile]	9.7	–
CNc1nc(Nc2cn(C(C)C)nc2C)ncc1C#N [Example 352, 2-(1-isopropyl-3-methyl-1H-pyrazol-4-ylamino)-4-(methylamino) pyrimidine-5-carbonitrile]	48	–
CCn1cc(Nc2ncc(C#N)c(NC)n2)c(C)n1 [Example 353, 2-(1-ethyl-3-methyl-1H-pyrazol-4-ylamino)-4-(methylamino) pyrimidine-5-carbonitrile]	36	–
CNc1nc(Nc2cn(-c3ccccc3)nc2C)ncc1C#N [Example 354, 2-(3-methyl-1-phenyl-1H-pyrazol-4-ylamino)-4-(methylamino) pyrimidine-5-carbonitrile]	120	–
CNc1nc(Nc2cn(C3CCN(CC(F)(F)F)CC3)nc2C)ncc1C#N [Example 355, 2-(3-methyl-1-(1-(2,2,2-trifluoroethyl)piperidin-4-yl)-1H-pyrazol-4-ylamino)-4-(methylamino) pyrimidine-5-carbonitrile]	299	–
CNc1nc(Nc2cnn(C3CCN(CC(F)(F)F)CC3)c2C)ncc1C#N [Example 356, 2-(5-methyl-1-(1-(2,2,2-trifluoroethyl)piperidin-4-yl)-1H-pyrazol-4-ylamino)-4-(methylamino) pyrimidine-5-carbonitrile]	22.5	–
CNc1nc(Nc2cnn(CC(F)(F)F)c2C)ncc1C#N [Example 358, 2-(5-methyl-1-(2,2,2-trifluoroethyl)-1H-pyrazol-4-ylamino)-4-(methylamino) pyrimidine-5-carbonitrile]	32	–
CNc1nc(Nc2cn(CC(F)(F)F)nc2C)ncc1C#N [Example 359, 2-(3-methyl-1-(2,2,2-trifluoroethyl)-1H-pyrazol-4-ylamino)-4-(methylamino) pyrimidine-5-carbonitrile]	53	–
CNc1nc(Nc2cnn(-c3ccccc3)c2C)ncc1C#N [Example 360, 2-(5-methyl-1-phenyl-1H-pyrazol-4-ylamino)-4-(methylamino) pyrimidine-5-carbonitrile]	1.3	–
CNc1nc(Nc2cnn(C3CCOCC3)c2C)ncc1C#N [Example 361, 2-(5-methyl-1-(tetrahydro-2H-pyran-4-yl)-1H-pyrazol-4-ylamino)-4-(methylamino) pyrimidine-5-carbonitrile]	8.7	–
CNc1nc(Nc2cn(C3CCOCC3)nc2C)ncc1C#N [Example 362, 2-(3-methyl-1-(tetrahydro-2H-pyran-4-yl)-1H-pyrazol-4-ylamino)-4-(methylamino) pyrimidine-5-carbonitrile]	86	–
CCNc1nc(Nc2cnn(CC)c2C)ncc1C#N [Example 363, 2-(1-ethyl-5-methyl-1H-pyrazol-4-ylamino)-4-(ethylamino) pyrimidine-5-carbonitrile]	6	–
CNc1nc(Nc2cn(C(F)F)nc2C)ncc1C#N [Example 365, 2-(1-(difluoromethyl)-3-methyl-1H-pyrazol-4-ylamino)-4-(methylamino) pyrimidine-5-carbonitrile]	35	–
CCCn1ncc(Nc2ncc(C#N)c(NC)n2)c1C [Example 366, 2-(5-methyl-1-propyl-1H-pyrazol-4-ylamino)-4-(methylamino) pyrimidine-5-carbonitrile]	5.4	–
CNc1nc(Nc2cn(-c3cc(F)cc(F)c3)nc2C)ncc1C#N [Example 367, 2-(1-(3,5-difluorophenyl)-3-methyl-1H-pyrazol-4-ylamino)-4-(methylamino) pyrimidine-5-carbonitrile]	1.8	–
